Measurements taken from patent US20200131196A1 (Mount Tam Therapeutics, Inc., priority 2017, published 2020).
pEC50, pIC50: −log10 of the molar value. Where two headings read alike, the source gives them in different places.

What was measured:
[1] = tested on: ST486; assay: OncoPanel cell proliferation assay, ST486; assay type: cell-based, human; settings: Homo sapiens, read-out: Cell Count IC50
Experimental: (§1) Cells were grown in RPMI 1640, 10% FBS, 2 mM L-alanyl-L-glutamine, 1 mM Na pyruvate, or a special medium. Cells were seeded into 384-well plates and incubated in a humidified atmosphere of 5% CO2 at 37° C. Compounds were added the day following cell seeding. At the same time, a time zero untreated cell plate was generated. After a 3-day incubation period, cells were fixed and stained to allow fluorescence imaging of nuclei. Compounds (1 mM stock solutions) were serially diluted in half-log steps from the highest test concentration ([…]), and assayed over 10 concentrations with a maximum assay concentration of 0.1% DMSO. Automated fluorescence microscopy was carried out using a Molecular Devices ImageXpress Micro XL high-content imager, and images were collected with a 4× objective. 16-bit TIFF images were acquired and analyzed with MetaXpress 5.1.0.41 software.
(§2) Cell proliferation was measured by the fluorescence intensity of an incorporated nuclear dye. The output is referred to as the relative cell count, where the measured nuclear intensity is transformed to percent of control (POC) using the following formula: […]
(§3) Cellular response parameters were calculated using nonlinear regression to a sigmoidal single-site dose response model:
(§4) EC50 is the test compound concentration at the curve inflection point or half the effective response (parameter C of the fitted curve solution). GI50 is the concentration needed to reduce the observed growth by half (midway between the curve maximum and the time zero value). “Cell Count Activity Area” is an estimate of the integrated area above the curve (Barretina, et al. The Cancer Cell Line Encyclopedia enables predictive modelling of anticancer drug sensitivity. Nature 483: 603-607). […] In rare instances, values <0 or >10 may be observed. […] Curve-fitting, calculations, and report generation was performed using a custom data reduction engine and MathIQ based software (AIM).

[2] = tested on: G-402; assay: OncoPanel cell proliferation assay, G-402; assay type: cell-based, human
Experimental: as §1, §2, §3, §4

[3] = tested on: SHP-77; assay: OncoPanel cell proliferation assay, SHP-77
Experimental: (§5) Cells were seeded into 384-well plates and incubated in a humidified atmosphere of 5% CO2 at 37° C. Compounds were added the day following cell seeding. At the same time, a time zero untreated cell plate was generated. After a 3-day incubation period, cells were fixed and stained to allow fluorescence imaging of nuclei. Compounds (1 mM stock solutions) were serially diluted in half-log steps from the highest test concentration (1 micromol), and assayed over 10 concentrations with a maximum assay concentration of 0.1% DMSO. Automated fluorescence microscopy was carried out using a Molecular Devices ImageXpress Micro XL high-content imager, and images were collected with a 4× objective. 16-bit TIFF images were acquired and analyzed with MetaXpress 5.1.0.41 software.

[4] = tested on: CAMA-1; assay: OncoPanel cell proliferation assay, CAMA-1
Experimental: as §5

[5] = tested on: A388; assay: OncoPanel cell proliferation assay, A388; assay type: cell-based, human
Experimental: as §1, with “Cells” for “Cells were grown in RPMI 1640, 10% FBS, 2 mM L-alanyl-L-glutamine, 1 mM Na pyruvate, or a special medium. Cells”
as §2, §3
GI50 is the concentration needed to reduce the observed growth by half (midway between the curve maximum and the time zero value). […] In rare instances, values <0 or >10 may be observed. […] Curve-fitting, calculations, and report generation was performed using a custom data reduction engine and MathIQ based software (AIM).

[6] = tested on: OVCAR3; assay: OncoPanel cell proliferation assay, OVCAR3
Experimental: as §5

[7] = tested on: CEM-C1; assay: OncoPanel cell proliferation assay, CEM-C1; assay type: cell-based, human
Experimental: as §1, §2, §3, §4

[8] = Homo sapiens, read-out: Cell Count EC50
[9] = Homo sapiens, read-out: Cell Count GI50
[10] = Homo sapiens, read-out: Cell Count IC50

Compound: CO[C@H]1C[C@@H]2CC[C@@H](C)[C@@](O)(O2)C(=O)C(=O)N2CCCC[C@H]2C(=O)O[C@H]([C@H](C)C[C@H]2C[C@H]3C[C@@H]2C[C@@H]3O)CC(=O)[C@H](C)/C=C(\C)[C@@H](O)[C@@H](OC)C(=O)[C@H](C)C[C@H](C)/C=C/C=C/C=C/1C [Formula II, C37-[(1R,2S,4R,5S)-5-hyhroxybicyclo[2.2.1]heptane] rapamycin]
- pIC50 [1]: < 6.00
- Cell Count Activity Area [2]: 4.75
- Relative cell count (%) Mean ([2]; 1.00E+00 microM): 25.8%
- Relative cell count (%) Mean ([2]; 1.00E-01 microM): 28.4%
- Relative cell count (%) Mean ([2]; 1.00E-02 microM): 40.5%
- Relative cell count (%) Mean ([2]; 1.00E-03 microM): 63.7%
- Relative cell count (%) Mean ([2]; 1.01E-04 microM): 100.0%
- Relative cell count (%) Mean ([2]; 3.16E-01 microM): 27.5%
- Relative cell count (%) Mean ([2]; 3.17E-02 microM): 36.6%
- Relative cell count (%) Mean ([2]; 3.17E-03 microM): 52.6%
- Relative cell count (%) Mean ([2]; 3.18E-04 microM): 86.8%
- Relative cell count (%) Mean ([2]; 3.18E-05 microM): 97.8%
- pEC50 [2, 8]: 8.95
- GI50 [2, 9]: 1.51 nM
- pIC50 [2, 10]: 8.54
- pEC50 ([3]; Homo sapiens, SHP77, read-out: Cell Count EC50): < 6.00
- GI50 ([3]; Homo sapiens, SHP77, read-out: Cell Count GI50): > 1000 nM
- pIC50 ([3]; Homo sapiens, SHP77, read-out: Cell Count IC50): < 6.00
- Cell Count Activity Area ([3]; SHP-77): 0.76
- Relative cell count (%) Mean ([3]; SHP-77, 1.00E+00 microM): 67.9%
- Relative cell count (%) Mean ([3]; SHP-77, 1.00E-01 microM): 79.9%
- Relative cell count (%) Mean ([3]; SHP-77, 1.00E-02 microM): 96.8%
- Relative cell count (%) Mean ([3]; SHP-77, 1.00E-03 microM): 96.1%
- Relative cell count (%) Mean ([3]; SHP-77, 1.01E-04 microM): 95.8%
- Relative cell count (%) Mean ([3]; SHP-77, 3.16E-01 microM): 75.2%
- Relative cell count (%) Mean ([3]; SHP-77, 3.17E-02 microM): 88.0%
- Relative cell count (%) Mean ([3]; SHP-77, 3.17E-03 microM): 92.3%
- Relative cell count (%) Mean ([3]; SHP-77, 3.18E-04 microM): 90.6%
- Relative cell count (%) Mean ([3]; SHP-77, 3.18E-05 microM): 98.5%
- Cell Count Activity Area ([4]; CAMA-1): 4.22
- Relative cell count (%) Mean ([4]; CAMA-1, 1.00E+00 microM): 42.0%
- Relative cell count (%) Mean ([4]; CAMA-1, 1.00E-01 microM): 45.4%
- Relative cell count (%) Mean ([4]; CAMA-1, 1.00E-02 microM): 54.6%
- Relative cell count (%) Mean ([4]; CAMA-1, 1.00E-03 microM): 64.5%
- Relative cell count (%) Mean ([4]; CAMA-1, 1.01E-04 microM): 98.0%
- Relative cell count (%) Mean ([4]; CAMA-1, 3.16E-01 microM): 43.0%
- Relative cell count (%) Mean ([4]; CAMA-1, 3.17E-02 microM): 45.1%
- Relative cell count (%) Mean ([4]; CAMA-1, 3.17E-03 microM): 55.9%
- Relative cell count (%) Mean ([4]; CAMA-1, 3.18E-04 microM): 79.7%
- Relative cell count (%) Mean ([4]; CAMA-1, 3.18E-05 microM): 96.5%
- pEC50 ([4]; Homo sapiens, CAMA-1, read-out: Cell Count EC50): 9.31
- GI50 ([4]; Homo sapiens, CAMA-1, read-out: Cell Count GI50): 0.647 nM
- pIC50 ([4]; Homo sapiens, CAMA-1, read-out: Cell Count IC50): 8.36
- Cell Count Activity Area [5]: 1.60
- Relative cell count (%) Mean ([5]; 1.00E+00 microM): 62.7%
- Relative cell count (%) Mean ([5]; 1.00E-01 microM): 65.6%
- Relative cell count (%) Mean ([5]; 1.00E-02 microM): 79.8%
- Relative cell count (%) Mean ([5]; 1.00E-03 microM): 80.8%
- Relative cell count (%) Mean ([5]; 1.01E-04 microM): 95.5%
- Relative cell count (%) Mean ([5]; 3.16E-01 microM): 62.3%
- Relative cell count (%) Mean ([5]; 3.17E-02 microM): 66.7%
- Relative cell count (%) Mean ([5]; 3.17E-03 microM): 79.0%
- Relative cell count (%) Mean ([5]; 3.18E-04 microM): 87.7%
- Relative cell count (%) Mean ([5]; 3.18E-05 microM): 86.5%
- pEC50 [5, 8]: 8.08
- GI50 [5, 9]: > 1000 nM
- pIC50 [5, 10]: < 6.00
- pEC50 ([6]; Homo sapiens): 7.37
- pEC50 ([6]; Homo sapiens, OVCAR-3, read-out: Cell Count EC50): 7.37
- GI50 ([6]; Homo sapiens, OVCAR-3, read-out: Cell Count GI50): 301 nM
- pIC50 ([6]; Homo sapiens, OVCAR-3, read-out: Cell Count IC50): < 6.00
- Cell Count Activity Area ([6]; OVCAR3): 1.09
- Relative cell count (%) Mean ([6]; OVCAR3, 1.00E+00 microM): 70.8%
- Relative cell count (%) Mean ([6]; OVCAR3, 1.00E-01 microM): 79.0%
- Relative cell count (%) Mean ([6]; OVCAR3, 1.00E-02 microM): 104.2%
- Relative cell count (%) Mean ([6]; OVCAR3, 1.00E-03 microM): 101.9%
- Relative cell count (%) Mean ([6]; OVCAR3, 1.01E-04 microM): 116.6%
- Relative cell count (%) Mean ([6]; OVCAR3, 3.16E-01 microM): 69.1%
- Relative cell count (%) Mean ([6]; OVCAR3, 3.17E-02 microM): 88.4%
- Relative cell count (%) Mean ([6]; OVCAR3, 3.17E-03 microM): 98.5%
- Relative cell count (%) Mean ([6]; OVCAR3, 3.18E-04 microM): 100.4%
- Relative cell count (%) Mean ([6]; OVCAR3, 3.18E-05 microM): 99.9%
- Cell Count Activity Area [7]: 3.13
- Relative cell count (%) Mean ([7]; 1.00E+00 microM): 51.5%
- Relative cell count (%) Mean ([7]; 1.00E-01 microM): 56.2%
- Relative cell count (%) Mean ([7]; 1.00E-02 microM): 66.8%
- Relative cell count (%) Mean ([7]; 1.00E-03 microM): 82.0%
- Relative cell count (%) Mean ([7]; 1.01E-04 microM): 98.1%
- Relative cell count (%) Mean ([7]; 3.16E-01 microM): 52.4%
- Relative cell count (%) Mean ([7]; 3.17E-02 microM): 58.8%
- Relative cell count (%) Mean ([7]; 3.17E-03 microM): 73.0%
- Relative cell count (%) Mean ([7]; 3.18E-04 microM): 92.1%
- Relative cell count (%) Mean ([7]; 3.18E-05 microM): 100.6%
- pEC50 [7, 8]: 8.74
- GI50 [7, 9]: 32.5 nM
- pIC50 [7, 10]: 6.58
